A value given as a limit tells only on which side of the number the result lay.

In one test the target is T1, GPR6 (Homo sapiens, UniProt P46095).
T1 construct: expressed in transfected cells; host or cells: CHO cells
Description: GPR6 antagonist functional cAMP assay (LANCE Ultra cAMP TR-FRET, CHO cells stably expressing GPR6). It is filed as cell-based. The gist of the method: (§1)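 We measure cAMP by TR-FRET (665 nm) in cells held in glucose-containing Krebs-Ringer buffer with BSA and a PDE inhibitor, after a 45 min, 37 °C compound incubation. IC50s derive from a four-parameter logistic fit.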

The target in a further test is T2, GPR3 (Homo sapiens, UniProt P46089).
T2 construct: expressed in transfected cells; host or cells: CHO cells
Description: GPR3 antagonist functional cAMP assay (LANCE Ultra cAMP TR-FRET, CHO cells stably expressing GPR3). Type of test: cell-based. In outline: as §1

Setting [1] is: CHO cells stably expressing GPR6, cAMP assay.
Where [2] appears, read: CHO cells stably expressing GPR3, cAMP assay.

T1 sequence (P46095 whole entry): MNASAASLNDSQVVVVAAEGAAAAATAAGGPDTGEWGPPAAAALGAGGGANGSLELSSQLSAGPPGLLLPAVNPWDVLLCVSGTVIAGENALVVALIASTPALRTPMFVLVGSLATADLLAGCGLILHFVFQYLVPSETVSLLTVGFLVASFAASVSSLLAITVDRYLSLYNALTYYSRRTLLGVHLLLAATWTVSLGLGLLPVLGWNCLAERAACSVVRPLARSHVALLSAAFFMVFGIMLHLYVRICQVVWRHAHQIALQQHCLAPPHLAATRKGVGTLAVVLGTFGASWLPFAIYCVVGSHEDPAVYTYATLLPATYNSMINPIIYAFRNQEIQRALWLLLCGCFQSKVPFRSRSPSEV
T2 sequence (P46089 whole entry, species assumed): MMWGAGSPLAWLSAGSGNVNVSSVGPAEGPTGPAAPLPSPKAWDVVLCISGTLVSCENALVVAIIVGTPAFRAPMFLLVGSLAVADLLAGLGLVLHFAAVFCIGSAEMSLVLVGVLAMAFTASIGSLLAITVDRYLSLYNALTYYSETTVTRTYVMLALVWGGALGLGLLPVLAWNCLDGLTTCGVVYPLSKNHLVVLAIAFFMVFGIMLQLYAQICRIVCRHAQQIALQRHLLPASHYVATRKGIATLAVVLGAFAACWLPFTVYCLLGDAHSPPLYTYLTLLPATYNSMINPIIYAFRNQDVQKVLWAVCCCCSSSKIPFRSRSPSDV

For `CC(=O)N1CCc2nc(N3CCC(C(F)c4ccc(F)cc4F)CC3)c(-c3cnn(C)c3)nc2C1` (stereo not drawn) [Compound 557, 1-(2-{4-[(2,4-difluorophenyl)fluoromethyl]-1-piperidyl}-3-(1-methyl-4-pyrazolyl)-5,6,7,8-tetrahydro-1,4,6-triaza-6-naphthyl)-1-ethanone], the concentration for half-maximal inhibition (IC50) on GPR6 (setting [1]) and against GPR3 (setting [2]) was under 0.1 µM throughout.

With `CC(=O)N1CCc2nc(N3CCC(C(C)(O)c4ccc(F)cc4F)CC3)c(-c3cnn(C)c3)nc2C1` (stereo not drawn) [Compound 558, 1-(2-{4-[1-(2,4-difluorophenyl)-1-hydroxyethyl]-1-piperidyl}-3-(1-methyl-4-pyrazolyl)-5,6,7,8-tetrahydro-1,4,6-triaza-6-naphthyl)-1-ethanone], the IC50 fell in the range of 1 to 30 µM against GPR6 (setting [1]) and 0.1 to 1 µM against GPR3 (setting [2]).

As to `CC(C)(O)C(O)c1cc2nc(N3CCN(Cc4ccccc4F)CC3)c(-c3cnn(C(F)F)c3)nc2cn1` (stereo not drawn) [Compound 559, 1-{3-[1-(difluoromethyl)-4-pyrazolyl]-2-{4-[(o-fluorophenyl)methyl]-1-piperazinyl}-1,4,6-triaza-7-naphthyl}-2-methyl-1,2-propanediol], the IC50 against GPR6 (setting [1]) lay within 0.1 to 1 µM; at GPR3 (setting [2]), 1 to 30 µM.

Consider `CC(=O)N1CCc2nc(N3CCC(=Cc4ccc(F)cc4)CC3)c(-c3cnn(C)c3)nc2C1` [Compound 560, 1-(2-{4-[(p-fluorophenyl)methylene]-1-piperidyl}-3-(1-methyl-4-pyrazolyl)-5,6,7,8-tetrahydro-1,4,6-triaza-6-naphthyl)-1-ethanone], for which the results for the IC50 against GPR6 (setting [1]) and on GPR3 (setting [2]) were under 0.1 µM and 0.1 to 1 µM, respectively.

Take `Cn1cc(-c2nc3cc(C(=O)C(C)(C)O)ncc3nc2N2CCN(Cc3ccc(F)cc3F)CC2)cn1` [Compound 563, 1-(3-{4-[(2,4-difluorophenyl)methyl]-1-piperazinyl}-2-(1-methyl-4-pyrazolyl)-1,4,6-triaza-7-naphthyl)-2-hydroxy-2-methyl-1-propanone]: the results for the half-inhibitory concentration (IC50) against GPR6 (setting [1]) and on GPR3 (setting [2]) were 0.1 to 1 µM and 1 to 30 µM, respectively.

With `CC(C)(O)C(=O)c1cc2nc(N3CCN(Cc4ccc(F)cc4F)CC3)c(-c3cnn(C(F)F)c3)nc2cn1` [Compound 566, 1-{3-[1-(difluoromethyl)-4-pyrazolyl]-2-{4-[(2,4-difluorophenyl)methyl]-1-piperazinyl}-1,4,6-triaza-7-naphthyl}-2-hydroxy-2-methyl-1-propanone], the IC50 fell in the range of 0.1 to 1 µM at GPR6 (setting [1]) and 1 to 30 µM against GPR3 (setting [2]).

Turning to `COCC(C)(O)c1cc2nc(N3CCC(Oc4ccc(F)cc4F)CC3)c(-c3cnn(C)c3)nc2cn1` (stereo not drawn) [Compound 567, 2-{2-[4-(2,4-difluorophenoxy)-1-piperidyl]-3-(1-methyl-4-pyrazolyl)-1,4,6-triaza-7-naphthyl}-1-methoxy-2-propanol], the IC50 was 0.1 to 1 µM against GPR6 (setting [1]) and 1 to 30 µM at GPR3 (setting [2]).

Take `CC(C)(O)C(=O)c1cc2nc(N3CCN(Cc4ccc(F)cc4F)CC3)c(-c3cnn(CF)c3)nc2cn1` [Compound 568, 1-(2-{4-[(2,4-difluorophenyl)methyl]-1-piperazinyl}-3-[1-(fluoromethyl)-4-pyrazolyl]-1,4,6-triaza-7-naphthyl)-2-hydroxy-2-methyl-1-propanone]: the results for the half-inhibitory concentration (IC50) on GPR6 (setting [1]) and against GPR3 (setting [2]) were 0.1 to 1 µM and 1 to 30 µM, respectively.

Regarding `Cn1cc(-c2nc3ccc(C(O)C(C)(C)O)nc3nc2N2CCN(Cc3ccc(F)cc3F)CC2)cn1` (stereo not drawn) [Compound 569, 1-(3-{4-[(2,4-difluorophenyl)methyl]-1-piperazinyl}-2-(1-methyl-4-pyrazolyl)-1,4,5-triaza-6-naphthyl)-2-methyl-1,2-propanediol], the values for the IC50 on GPR6 (setting [1]) and on GPR3 (setting [2]) were 1 to 30 µM and at least 30 µM, respectively.

Take `CC(=O)N1CCc2nc(N3CCN(Cc4cc(Cl)ccc4Cl)CC3)c(-c3ccc(F)c(N)n3)nc2C1` [Compound 580, 1-[3-(6-amino-5-fluoro-2-pyridyl)-2-{4-[(2,5-dichlorophenyl)methyl]-1-piperazinyl}-5,6,7,8-tetrahydro-1,4,6-triaza-6-naphthyl]-1-ethanone]: the values for the IC50 against GPR6 (setting [1]) and on GPR3 (setting [2]) were under 0.1 µM and 1 to 30 µM, respectively.

For the compound `CC(=O)N1CCc2nc(N3CCN(Cc4cc(F)ccc4F)CC3)c(-c3ccc(F)c(N)n3)nc2C1` [Compound 581, 1-[3-(6-amino-5-fluoro-2-pyridyl)-2-{4-[(2,5-difluorophenyl)methyl]-1-piperazinyl}-5,6,7,8-tetrahydro-1,4,6-triaza-6-naphthyl]-1-ethanone], the 50% inhibitory concentration (IC50) was under 0.1 µM on GPR6 (setting [1]) and 1 to 30 µM at GPR3 (setting [2]).

Turning to `CC(=O)N1CCc2nc(N3CCN(Cc4cc(Cl)ccc4F)CC3)c(-c3ccc(F)c(N)n3)nc2C1` [Compound 582, 1-[3-(6-amino-5-fluoro-2-pyridyl)-2-{4-[(5-chloro-2-fluorophenyl)methyl]-1-piperazinyl}-5,6,7,8-tetrahydro-1,4,6-triaza-6-naphthyl]-1-ethanone], the half-inhibitory concentration (IC50) against GPR6 (setting [1]) is under 0.1 µM; at GPR3 (setting [2]), 1 to 30 µM.

`Cn1cc(-c2nc3ccc(C(O)C(C)(C)O)nc3nc2N2CCC(Oc3ccc(F)cc3F)CC2)cn1` (stereo not drawn) [Compound 587, 1-{3-[4-(2,4-difluorophenoxy)-1-piperidyl]-2-(1-methyl-4-pyrazolyl)-1,4,5-triaza-6-naphthyl}-2-methyl-1,2-propanediol]: the IC50 against GPR6 (setting [1]) and against GPR3 (setting [2]) was 1 to 30 µM each time.

As for `Cn1cc(-c2nc3cc(C(C)(O)C(C)(C)O)ncc3nc2N2CCN(Cc3ccc(F)cc3F)CC2)cn1` (stereo not drawn) [Compound 604, 2-(3-{4-[(2,4-difluorophenyl)methyl]-1-piperazinyl}-2-(1-methyl-4-pyrazolyl)-1,4,6-triaza-7-naphthyl)-3-methyl-2,3-butanediol], the IC50 at GPR6 (setting [1]) is 0.1 to 1 µM; against GPR3 (setting [2]), 1 to 30 µM.

Regarding `CC(C)(O)C(C)(O)c1cc2nc(N3CCN(Cc4ccc(F)cc4F)CC3)c(-c3cnn(C4CC4)c3)nc2cn1` (stereo not drawn) [Compound 605, 2-[3-(1-cyclopropyl-4-pyrazolyl)-2-{4-[(2,4-difluorophenyl)methyl]-1-piperazinyl}-1,4,6-triaza-7-naphthyl]-3-methyl-2,3-butanediol], the half-maximal inhibitory concentration (IC50) fell in the range of 0.1 to 1 µM on GPR6 (setting [1]) and 1 to 30 µM against GPR3 (setting [2]).

Consider `CC(C)(O)C(O)c1cc2nc(N3CCN(Cc4ccccc4F)CC3)c(-c3cnn(CF)c3)nc2cn1` (stereo not drawn) [Compound 606, 1-{3-[1-(fluoromethyl)-4-pyrazolyl]-2-{4-[(o-fluorophenyl)methyl]-1-piperazinyl}-1,4,6-triaza-7-naphthyl}-2-methyl-1,2-propanediol], for which the 50% inhibitory concentration (IC50) on GPR6 (setting [1]) lay within 0.1 to 1 µM; against GPR3 (setting [2]), 1 to 30 µM.

Turning to `CC(C)(O)C(C)(O)c1cc2nc(N3CCN(Cc4ccc(F)cc4F)CC3)c(-c3cnn(CF)c3)nc2cn1` (stereo not drawn) [Compound 607, 2-(2-{4-[(2,4-difluorophenyl)methyl]-1-piperazinyl}-3-[1-(fluoromethyl)-4-pyrazolyl]-1,4,6-triaza-7-naphthyl)-3-methyl-2,3-butanediol], the figures for the half-maximal inhibitory concentration (IC50) on GPR6 (setting [1]) and against GPR3 (setting [2]) were 0.1 to 1 µM and 1 to 30 µM, respectively.

`CC(C)(O)C(=O)c1cc2nc(N3CCN(Cc4ccccc4F)CC3)c(-c3cnn(CF)c3)nc2cn1` [Compound 608, 1-{3-[1-(fluoromethyl)-4-pyrazolyl]-2-{4-[(o-fluorophenyl)methyl]-1-piperazinyl}-1,4,6-triaza-7-naphthyl}-2-hydroxy-2-methyl-1-propanone]: the results for the IC50 on GPR6 (setting [1]) and against GPR3 (setting [2]) were 0.1 to 1 µM and 1 to 30 µM, respectively.

Consider `CC(=O)N1CCc2nc(N3CCN(Cc4ccc(F)cc4F)CC3)c(-c3ccc(F)c(N)n3)nc2C1` [Compound 609, 1-[3-(6-amino-5-fluoro-2-pyridyl)-2-{4-[(2,4-difluorophenyl)methyl]-1-piperazinyl}-5,6,7,8-tetrahydro-1,4,6-triaza-6-naphthyl]-1-ethanone], for which the IC50 against GPR6 (setting [1]) and against GPR3 (setting [2]) was 0.1 to 1 µM each time.

For the compound `CC(=O)N1CCc2nc(N3CCN(Cc4ccc(Cl)cc4F)CC3)c(-c3ccc(F)c(N)n3)nc2C1` [Compound 610, 1-[3-(6-amino-5-fluoro-2-pyridyl)-2-{4-[(4-chloro-2-fluorophenyl)methyl]-1-piperazinyl}-5,6,7,8-tetrahydro-1,4,6-triaza-6-naphthyl]-1-ethanone], the results for the IC50 on GPR6 (procedure of Example 24) and against GPR3 (procedure of Example 24) were under 0.1 µM and 1 to 30 µM, respectively.

Take `COC(=O)N1CCc2nc(N3CCC(Oc4ccc(F)cc4F)CC3)c(-c3ccc(F)c(N)n3)nc2C1` [Compound 611, 6-{2-[4-(2,4-difluorophenoxy)-1-piperidyl]-6-methoxycarbonyl-5,6,7,8-tetrahydro-1,4,6-triaza-3-naphthyl}-3-fluoro-2-pyridylamine]: the half-inhibitory concentration (IC50) was under 0.1 µM against GPR6 (procedure of Example 24) and 1 to 30 µM against GPR3 (procedure of Example 24).

In the case of `CC(C)(O)C(=O)c1cc2nc(N3CCC(Oc4ccc(F)cc4F)CC3)c(-c3cnn(C(F)F)c3)nc2cn1` [Compound 616, 1-{3-[1-(difluoromethyl)-4-pyrazolyl]-2-[4-(2,4-difluorophenoxy)-1-piperidyl]-1,4,6-triaza-7-naphthyl}-2-hydroxy-2-methyl-1-propanone], the IC50 is 0.1 to 1 µM on GPR6 (procedure of Example 24) and 1 to 30 µM against GPR3 (procedure of Example 24).

`Cn1cc(-c2nc3cnc(C(C)(O)C(C)(C)O)cc3nc2N2CCN(Cc3ccc(F)cc3F)CC2)cn1` (stereo not drawn) [Compound 617, 2-(2-{4-[(2,4-difluorophenyl)methyl]-1-piperazinyl}-3-(1-methyl-4-pyrazolyl)-1,4,6-triaza-7-naphthyl)-3-methyl-2,3-butanediol]: the 50% inhibitory concentration (IC50) against GPR6 (procedure of Example 24) lay within 0.1 to 1 µM; on GPR3 (procedure of Example 24), 1 to 30 µM.

With `CC(C)(O)C(=O)c1cc2nc(N3CCN(Cc4ccccc4F)CC3)c(-c3cnn(C(F)F)c3)nc2cn1` [Compound 618, 1-{3-[1-(difluoromethyl)-4-pyrazolyl]-2-{4-[(o-fluorophenyl)methyl]-1-piperazinyl}-1,4,6-triaza-7-naphthyl}-2-hydroxy-2-methyl-1-propanone], the values for the IC50 on GPR6 (procedure of Example 24) and against GPR3 (procedure of Example 24) were 0.1 to 1 µM and 1 to 30 µM, respectively.

Values taken from patent US20260042755A1, “GPR6 INVERSE AGONISTS” (MapLight Therapeutics, Inc., priority 2022, published 2026).
